Reference: US4933369A, “Dimethyl tyrosyl amide sulfides, sulfoxides and sulfones” (G. D. Searle & Co., priority 1988, dated 1990)

Legend:
[1] = biological target: opiate receptors isolated from rat brain; experiment: Opiate binding assay (displacement of 3H-Naloxone); details: 3H-Naloxone 1NM, rat brain membranes, pH 7.4, 25° C., 60 min
Method: (§1) The test compounds were evaluated for their ability to displace the binding of ^3 H-Naloxone to opiate receptors isolated from rat brain. Male rats (Crl:CD)(SD)(BR) obtained from Charles River Laboratories (Portage, Mich.) were sacrificed by cervical dislocation. A purified homogenate of receptor membranes was prepared from the brains according to the method described by Chang and Cuatrecasas. Multiple Opiate Receptors: Enkephalins and Morphine Bind to Receptors of Different Specificity. J. Biol. Chem. 254, 2610-2618 (1979). The brains were homogenized in ten volumes of 0.32 M sucrose and centrifuged twice at 6,000×g for fifteen minutes. Following centrifugation of the supernatants at 40,000×g for thirty minutes, the pellets were resuspended in 5 mM tris HCl, and centrifuged at 6,000×g. The supernatant was centrifuged at 40,000×g. The resuspension in 5 mM tris and centrifugation was repeated twice. The final pellet was resuspended in two volumes of 50 mM tris HCl, (pH 7.4). The homogenate was assayed for protein content according to the method of Itzhaki and Gill (R. E. Itzhaki and D. N. Gill. A Micro-Biuret Method for Estimating proteins Anal. Biochem. 9, 401-410, 1964).
The binding of the test compounds to the receptor membrane preparation was measured using a modification of the method of Pert and Snyder (C. B. Pert and S. H. Snyder. Property of Opiate-Receptor Binding in Rat Brain. Proc. Natl. Acad. Sci. 70, 2243-2247, 1973). The receptor assay was run using a final concentration of 1NM^3 H-Naloxone and 0.5 mg/ml of homogenate protein. Levorphanol (1×10^-5 M) was used as the displacer for non-specific binding. The final concentration of the test compounds was 10^-5 M) The assay was run in 0.05 M tris HCl (pH 7.4). Total assayed volume was 1.0 ml.
(§2) Samples were incubated at 25° C. for sixty minutes, filtered over Whatman GF/C glass fiber filters and rinsed twice with 2.4 ml washes of ice-cold buffer. The filters were air dried at 50° C. for thirty minutes. After drying, 10 ml of PCS was added to the vial and radioactivity determined using a Tracore Analytic Mark III liquid scintillation counter with a counting efficiency of 48%.
The IC50 values, the concentration of the test compounds which inhibited ^3 H-Naloxone specific binding to the opiate receptor by 50%, were obtained from log-logit plots of concentration-response curves.

[2] = system: mouse; experiment: Writhing assay (phenylbenzoquinone-induced writhing, analgesia); type: in vivo, Male Charles River albino mice (CD-1/HAM/lLR); set-up: key: +: The test compound was rated active if the number of writhes in the drug treatment group was significantly less than the number of writhes in the saline treatment group as determined by a one-way analysis of variance; details: 30 min before phenylbenzoquinone, initial test dose 2 mg/kg
Method: Male Charles River albino mice (CD-1/HAM/lLR) weighing between 20 and 30 grams were used. Thirty minutes after subcutaneous or intragastric administration of the test compound (0.1 ml/10 gm body weight), 0.025% (w/x) phenylbenzoquinone was injected intraperitoneally (0.1 ml/10 gm body weight). Five minutes later, each mouse was placed in a large glass beaker and the number of writhes that occurred in the subsequent ten minutes is counted. A writhe consisted of dorsoflexion of the back, extension of the hind limbs and strong contraction of the abdominal musculature. The test compound was considered to have produced analgesia in a mouse if the number of writhes elicited by phenylbenzoguinone was equal to or less than 1/2 the median number of writhes recorded for the saline-treated group that day. The results were expressed as the number of mice (out of a possible 10) in which the test compound produced analgesia. […] If the initial test dose of 2 mg/kg inhibited writhing in greater than six out of ten mice, the effect of additional doses was evaluated and an ED50 value was calculated using a maximum likelihood function.

[3] = biological target: T1, opiate receptors isolated from rat brain (Rattus norvegicus, UniProt P33535); experiment: Opiate binding assay with (D)Ala^2Glyol^5 Enkephlin as radioactive ligand
T1 construct: A purified homogenate of receptor membranes was prepared from the brains; from tissue; host or cells: brain membranes of male Crl:CD(SD)BR rats (animals from Charles River Laboratories)
T1 sequence (P33535 whole entry): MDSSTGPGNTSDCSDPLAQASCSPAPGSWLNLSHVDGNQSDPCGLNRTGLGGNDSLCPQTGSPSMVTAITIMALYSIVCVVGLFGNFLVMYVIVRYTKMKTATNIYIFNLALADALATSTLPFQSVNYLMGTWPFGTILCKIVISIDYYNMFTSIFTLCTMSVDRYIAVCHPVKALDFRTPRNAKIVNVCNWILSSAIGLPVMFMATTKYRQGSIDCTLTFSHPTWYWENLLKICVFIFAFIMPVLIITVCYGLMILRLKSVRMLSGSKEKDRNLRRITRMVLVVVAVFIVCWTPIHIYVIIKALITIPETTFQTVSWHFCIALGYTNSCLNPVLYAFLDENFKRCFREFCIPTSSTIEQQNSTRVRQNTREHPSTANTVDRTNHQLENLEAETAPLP
Method: as §1, with “Male” for “The test compounds were evaluated for their ability to displace the binding of ^3 H-Naloxone to opiate receptors isolated from rat brain. Male”, “The final pellet was resuspended in two volumes of 50 mM tris HCl, (pH 7.4). The homogenate was assayed for protein content according to the method of Itzhaki and Gill (R. E. Itzhaki and D. N. Gill. A Micro-Biuret Method for Estimating proteins Anal. Biochem. 9, 401-410, 1964).” left out
The binding of the test compounds to the receptor membrane preparation was measured using a modification of the method of Pert and Snyder (C. B. Pert and S. H. Snyder. Property of Opiate-Receptor Binding in Rat Brain. Proc. Natl. Acad. Sci. 70, 2243-2247, 1973). […]
as §2, with “The filters were air dried at 50° C. for thirty minutes.” left out, “48%. […]” for “48%.”

Cc1cc(O)cc(C)c1CC(N)C(=O)NCCSCCCc1ccccc1 (racemic) [Example 2, (±)α-amino-4-hydroxy-2,6-dimethyl-N-[2-[(3-phenylpropyl)thio]ethyl]benzenepropanamide]
IC50 [1]: 2.2 nM

Cc1cc(O)cc(C)c1CC(N)C(=O)NCCCSCCc1ccccc1 (racemic) [Example 5, (±) α-2,6-dimethyl-N-[3-[(2-phenylethyl)thio]propyl]benzenepropanamide]
ACTIVE (writhing assay, subcutaneous dosing) [2]: +
IC50 [3]: 3.6 nM

Cc1cc(O)cc(C)c1C[C@H](N)C(=O)NCCCSc1ccccc1 [Example 9, (L)α-amino-4-hydroxy-2,6-dimethyl-N-[3-(phenylthio)propyl]benzenepropanamide]
IC50 [3]: 20.9 nM

Cc1cc(O)cc(C)c1CC(N)C(=O)NCCCS(=O)(=O)CCc1ccccc1 (racemic) [Example 6, (±)α-amino-4-hydroxy-2,6-dimethyl-N-[3-[(2-phenylethyl)sulfonyl]-propyl]benzenepropanamide]
IC50 [1]: 0.9 nM

Cc1cc(O)cc(C)c1CC(N)C(=O)NCC[S+]([O-])CCCc1ccccc1 (racemic) [Example 4, (±)α-amino-4-hydroxy-2,6-dimethyl-N-[2-[(3-phenylpropyl)sulfinyl]ethyl]benzenepropanamide]
ACTIVE (writhing assay, subcutaneous dosing) [2]: +
IC50 [1]: 2.8 nM

Cc1cc(O)cc(C)c1CC(N)C(=O)NCCCSCc1ccccc1 (racemic) [Example 7, (±)α-amino-4-hydroxy-2,6-dimethyl-N-[3-[(phenylmethyl)thio]propyl]benzenepropanamide]
ACTIVE (writhing assay, subcutaneous dosing) [2]: +
IC50 [1]: 21 nM

Cc1cc(O)cc(C)c1CC(N)C(=O)NCCCCSCc1ccccc1 (racemic) [Example 8, (±)α-amino-4-hydroxy-2,6-dimethyl-N-[4-(phenylmethyl)thio]butyl]benzenepropanamide]
ACTIVE (writhing assay, subcutaneous dosing) [2]: +

Cc1cc(O)cc(C)c1CC(N)C(=O)NCCS(=O)(=O)CCCc1ccccc1 (racemic) [Example 3, (±)α-amino-4-hydroxy-2,6-dimethyl-N-[2-[(3-phenylpropyl)sulfonyl]ethyl]benzenepropanamide]
ACTIVE (writhing assay, subcutaneous dosing) [2]: +
IC50 [1]: 0.8 nM
